Entries after “also recorded” stand apart in the source; their conditions may differ.
Columns and labels:
[1] = system: VTA DA neurons; experiment: VTA dopamine neuronal firing in VTA slices (cell-attached recording); assay type: cell-based, mouse
Protocol: In this example, the effects of DHM on mouse ventral tegmental area (“VTA”) dopamine (“DPA”) neuronal firing in slices were measured.

[2] = system: VTA DA neurons; experiment: VTA DA neuronal firing in anesthetized mice (in vivo recording); conditions: i.v.
Text: Part C is after in vivo recording. The recording site was dyed using blue-sky dye, and confirmed by cutting brain sections that contained VTA.

[3] = target: T1, α4β2-nAChRs (Homo sapiens, UniProt P17787+P43681); experiment: ACh-induced whole-cell currents of transfected α4β2-nAChRs in SH-EP1 cells; assay type: cell-based; conditions: DHM co-applied at different concentrations, SH-EP1 cells (FIG. 1)
T1 construct: expressed in transfected cells; host or cells: human SH-EP1 cells
Protocol: In this example, the effects of DHM on transfected α4β2-nAChRs in human SH-EP1 cells (a model system to study human acetylcholine (“ACh”) receptors) were measured. Traces of ACh-induced whole-cell currents co-applied with different concentrations of DHM were created and examined.

[4] = system: NIC-induced conditioned-place preference; experiment: NIC-induced conditioned-place preference (CPP); assay type: in vivo
Protocol: In this example, the effects of DHM on NIC-induced conditioned-place preference (“CCP”) were measured.
Part A is the CPP performance protocol.

[5] = system: C57BL/J mice; experiment: NIC-induced behavioral sensitization (local motor activity); assay type: in vivo
Protocol: In this example, the effects of DHM on NIC-induced behavioral sensitization in mice were measured.
C57BL/J mice were repetitively treated with NIC (0.5 mg/kg, i.p.), and the local motor activities were measured.

[6] = NIC 0.5 mg/kg, anesthetized mice (FIG. 3 B)
[7] = NIC 0.5 mg/kg, i.p., repetitive, C57BL/J mice (FIG. 6)

T1 sequence (P43681 29-627 limits assumed): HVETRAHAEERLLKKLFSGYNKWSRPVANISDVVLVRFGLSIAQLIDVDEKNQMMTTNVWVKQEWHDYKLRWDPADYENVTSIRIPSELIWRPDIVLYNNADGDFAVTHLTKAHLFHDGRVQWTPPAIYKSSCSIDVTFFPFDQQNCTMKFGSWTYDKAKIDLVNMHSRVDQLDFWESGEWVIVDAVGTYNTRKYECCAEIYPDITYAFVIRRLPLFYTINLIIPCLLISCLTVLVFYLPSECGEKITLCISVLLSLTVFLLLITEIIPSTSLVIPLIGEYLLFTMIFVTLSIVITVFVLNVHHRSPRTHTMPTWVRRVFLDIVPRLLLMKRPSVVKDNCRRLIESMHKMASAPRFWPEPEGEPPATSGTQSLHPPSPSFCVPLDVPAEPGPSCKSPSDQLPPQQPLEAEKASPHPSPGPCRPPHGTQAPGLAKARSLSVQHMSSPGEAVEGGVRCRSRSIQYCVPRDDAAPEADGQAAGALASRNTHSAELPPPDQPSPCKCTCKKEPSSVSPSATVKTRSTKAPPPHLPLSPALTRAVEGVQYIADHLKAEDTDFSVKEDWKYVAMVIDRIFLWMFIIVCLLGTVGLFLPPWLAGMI
T1 sequence (P17787 26-502): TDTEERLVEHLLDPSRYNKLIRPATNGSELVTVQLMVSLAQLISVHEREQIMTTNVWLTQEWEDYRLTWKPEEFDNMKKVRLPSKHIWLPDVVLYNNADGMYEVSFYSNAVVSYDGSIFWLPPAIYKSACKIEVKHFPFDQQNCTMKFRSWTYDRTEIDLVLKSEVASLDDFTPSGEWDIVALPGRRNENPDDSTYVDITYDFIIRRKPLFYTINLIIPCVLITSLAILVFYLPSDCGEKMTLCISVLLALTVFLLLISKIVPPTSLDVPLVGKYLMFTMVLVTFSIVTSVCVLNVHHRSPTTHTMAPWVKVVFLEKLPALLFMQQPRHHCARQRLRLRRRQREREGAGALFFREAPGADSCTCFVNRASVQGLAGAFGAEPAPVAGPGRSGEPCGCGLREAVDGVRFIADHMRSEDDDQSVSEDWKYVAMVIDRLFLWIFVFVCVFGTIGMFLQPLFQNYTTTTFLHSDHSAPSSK

| SMILES | NIC-induced enhancement of AP firing rate, effect of DHM ([1]; VTA slices (FIG. 2 C, D)) | DA neuron firing rate, effect of DHM itself ([1]; VTA slices, different concentrations of DHM (FIG. 2 D)) | DA neuronal firing rate, effect of DHM ([2]; DHM 1 and 10 mg/kg, anesthetized mice (FIG. 4)) | NIC-induced AP firing increase, effect of DHM ([2]; DHM 1 and 10 mg/kg, anesthetized mice (FIG. 4 D)) | a4b2-nAChR-mediated whole-cell currents [3] | NIC-induced CPP, overall ([4]; FIG. 5) | NIC-induced CPP after withdrawal 5 days of NIC (day 19) ([4]; FIG. 5 B, C) | NIC-induced CPP at test day (day 13) ([4]; FIG. 5 C) | NIC-induced behavioral sensitization (local motor activity), effect of DHM ([5]; NIC group vs NIC+DHM group (FIG. 7)) | AP firing rate of DA neurons, effect of bath-applied nicotine ([1]; VTA slices, cell-attached recording (FIG. 2 A, B)) | DA neuronal firing, time-frequency relationship after NIC ([2]; NIC 0.5 mg/kg, anesthetized mice (FIG. 3 A)) | AP firing rate after systemic injection of NIC [2, 6] | bursting firing after systemic injection of NIC [2, 6] | slow oscillations (SO) after systemic injection of NIC [2, 6] | motor activity (total move distance) with repetitive injections of NIC [5, 7] | motor activity after withdrawal at 5 and 10 days [5, 7] |
| --- | --- | --- | --- | --- | --- | --- | --- | --- | --- | --- | --- | --- | --- | --- | --- | --- |
| O=C1c2c(O)cc(O)cc2O[C@H](c2cc(O)c(O)c(O)c2)[C@H]1O [DHM, dihydromyricetin] | abolished; also recorded: prevented | reduced DA firing | reduced | abolished | inhibited | significantly reduces; also recorded: inhibits | abolished | abolished | significantly reduced; also recorded: inhibits | – | – | – | – | – | – | – |
| CN1CCCC1c1cccnc1 (stereo not shown) [NIC, nicotine] | – | – | – | – | – | – | – | – | – | enhancement of AP firing rate | an initial reduction following by a long-lasting increase | enhanced | enhanced | reduction | increased | still maintained at a high level |
